Measured values published in US12533389B2, “Glycopeptide antibiotic combination therapy” (The Trustees of Princeton University, priority 2021, dated 2026).
Values after ≈ are worked out from the molar mass of the structure shown. Read-outs that look alike come from different tables or passages of the source.

Key:
[1] = test system: Nα,Nε-diacetyl-L-Lys-D-Ala-D-Ala tripeptide; experiment: Isothermal titration calorimetry (ITC) equilibrium binding of GPAs to the tripeptide ligand; details: for ΔG: Experiment (ITC)
[2] = test system: C. difficile P8; experiment: MIC by agar dilution method (CLSI); type: cell-based, Clostridium difficile
Procedure: Minimal inhibitory concentrations (MICs) were determined by the agar dilution method following the guidelines of the Clinical and Laboratory Standards Institute (CLSI). […] The effect of vancomycin in combination with keratinicyclin B against C. difficile P8 was assessed by the checkerboard agar dilution method. […] The antibiotic agar plates were prereduced in an anaerobic container prior to inoculation. […] To avoid the selection of an atypical variant, five colonies were suspended in prereduced Gifu anaerobic broth and grown to a density equivalent to a 0.5 McFarland standard (1-2×10^8 cfu/mL). […] After incubating anaerobically at 37° C. for 48 h, the plates were inspected for bacterial growth. The MIC was defined as the lowest concentration of antibiotic leading to no growth, one colony, or a fine haze.

[3] = test system: selected gut bacteria; experiment: Antimicrobial susceptibility profile of selected gut bacteria; type: cell-based
[4] = test system: C. difficile infection; details: compared to metronidazole and vancomycin; cited from earlier work
[5] = test system: diverse Gram-positive bacteria; details: cited from earlier work
[6] = test system: C. difficile P8; experiment: Checkerboard agar dilution of vancomycin in combination with keratinicyclin B; type: cell-based, Clostridium difficile
Procedure: Minimal inhibitory concentrations (MICs) were determined by the agar dilution method following the guidelines of the Clinical and Laboratory Standards Institute (CLSI). […] The effect of vancomycin in combination with keratinicyclin B against C. difficile P8 was assessed by the checkerboard agar dilution method. […] The antibiotic agar plates were prereduced in an anaerobic container prior to inoculation. […] To avoid the selection of an atypical variant, five colonies were suspended in prereduced Gifu anaerobic broth and grown to a density equivalent to a 0.5 McFarland standard (1-2×10^8 cfu/mL). Once the appropriate cell density was reached, the prereduced antibiotic agar plates were inoculated (10^5 cfu/spot). After incubating anaerobically at 37° C. for 48 h, the plates were inspected for bacterial growth. The MIC was defined as the lowest concentration of antibiotic leading to no growth, one colony, or a fine haze. […] The combination effect was defined as synergistic when ΣFIC≤0.5, additive when 0.5<ΣFIC≤1, indifferent when 1<ΣFIC≤2, and antagonistic when ΣFIC>2.

[7] = test system: Clostridium difficile, Strain P8; experiment: Antimicrobial susceptibility profile of selected gut bacteria; type: cell-based; details: drug alone
[8] = test system: Clostridium perfringens, Strain WAL-14572; type: cell-based; details: drug alone
[9] = test system: Ruminococcus lactaris, Strain CC59_002D, HM-1057; experiment: Antimicrobial susceptibility profile of selected gut bacteria; type: cell-based; details: drug alone
[10] = test system: C. difficile; details: cited from earlier work
[11] = target: tripeptide ligand; details: cited from earlier work
[12] = ITC, 25° C., 0.1 M sodium phosphate buffer, pH 7

## CN[C@H](CC(C)C)C(=O)N[C@H]1C(=O)N[C@@H](CC(N)=O)C(=O)N[C@H]2C(=O)N[C@H]3C(=O)N[C@H](C(=O)N[C@H](C(=O)O)c4cc(O)cc(O)c4-c4cc3ccc4O)[C@H](O)c3ccc(c(Cl)c3)Oc3cc2cc(c3O[C@@H]2O[C@H](CO)[C@@H](O)[C@H](O)[C@H]2O[C@H]2C[C@](C)(N)[C@H](O)[C@H](C)O2)Oc2ccc(cc2Cl)[C@H]1O [vancomycin]
[1]
  ΔG: -7.6 kcal/mol
[1]; [12]
  Kd: 2700 ± 400 nM
[1]; ITC, 25° C., pH 7
  TΔS: -0.96 kcal/mol
  ΔH: -8.6 ± 0.5 kcal/mol
[2]; Clostridioides difficile, P8, 48 h
  MIC: 1 µg/mL
[3]
  spectrum of antibacterial activity: broad-spectrum antibacterial activity against all tested Gram-positive bacteria

## CCc1c(Cl)c(O)c(Cl)c(O)c1C(=O)O[C@H]1[C@H](O)[C@H](OC)[C@H](OC/C2=C\C=C\C[C@H](O)/C(C)=C/[C@H](CC)[C@@H](O[C@@H]3OC(C)(C)[C@@H](OC(=O)C(C)C)[C@H](O)[C@@H]3O)/C(C)=C/C(C)=C/C[C@@H]([C@@H](C)O)OC2=O)O[C@@H]1C [fidaxomicin]
[4]
  recurrence rates: halves recurrence rates

## keratinimicin A
[1]
  ΔG: -7.9 kcal/mol
[1]; ITC, 25° C., pH 7
  TΔS: 0.85 kcal/mol
[1]; ITC, 25° C., pH 7, unit inferred
  Kd: 1700 ± 300 nM
[5]
  spectrum of activity: broad-spectrum activity against diverse Gram-positive bacteria

## CO[C@H]1[C@H](C)O[C@@H](O[C@@H]2c3ccc(c(Cl)c3)Oc3cc4cc(c3O[C@@H]3O[C@H](CO)[C@@H](O)[C@H](O)[C@H]3O[C@H]3C[C@H](N)[C@@H](O)[C@H](C)O3)Oc3ccc(cc3)[C@H]3OC(=O)N[C@H]3C(=O)N[C@@H](Cc3ccccc3)C(=O)N[C@H]4C(=O)N[C@H]3C(=O)N[C@@H]2C(=O)N[C@H](C(=O)O)c2cc(O)cc(O[C@H]4O[C@H](CO)[C@@H](O)[C@H](O)[C@@H]4O)c2-c2cc3ccc2O)C[C@@H]1N [keratinicyclin B]
[1]; ITC, several concentrations tested
  binding of the tripeptide: did not bind the tripeptide
[1]; ITC, estimated based on the sensitivity of the setup
  Kd: > 500000 nM
[2]; alone, anaerobic, 37° C., 48 h
  MIC: 4 µg/mL
[6]; keratinicyclin B 4 μg/mL + vancomycin 0 μg/mL
  Checkerboard analysis result: I (I = indifference)
[6]; keratinicyclin B 8 μg/mL + vancomycin 0 μg/mL
  Checkerboard analysis result: I (I = indifference)
[3]; each drug alone, FIG. 5
  spectrum of antibacterial activity: narrower spectrum of antibiotic activity
[7]
  growth inhibition: inhibiting the growth
[8]
  growth inhibition: inhibiting the growth
[9]
  growth inhibition: inhibiting the growth
[10]; previous bioactivity data
  minimal inhibitory concentration (MIC): 9.8 µM (≈ 16.1 µg/mL)
[10]; previously shown
  spectrum of activity: narrow-spectrum activity against C. difficile

## C[C@@H]1O[C@@H](O[C@H]2[C@H](Oc3c4cc5cc3Oc3ccc(cc3Cl)[C@@H](O)[C@@H](N)C(=O)N[C@@H](CC(N)=O)C(=O)N[C@H]5C(=O)N[C@H]3C(=O)N[C@H](C(=O)N[C@H](C(=O)O)c5cc(O)cc(O)c5-c5cc3ccc5O)[C@H](O)c3ccc(c(Cl)c3)O4)O[C@H](CO)[C@@H](O)[C@@H]2O)C[C@](C)(N)[C@@H]1O [desleucyl-1]
[11]; Experiment section of Table 2, reported value
  Kd: ~20 mM
[11]; N-terminal N-Me-D-Leu removed by Edman degradation
  binding of the tripeptide ligand: does not bind the tripeptide ligand
[11]; reported experimental value
  Kd: ~20 mM

## keratinimicin C
[1]; [12]
  Kd: 2800 ± 300 nM
[1]; ITC, 25° C., pH 7
  TΔS: 0.2 kcal/mol
  ΔH: -7.4 ± 0.3 kcal/mol
